Publication PMC7179297, “Preclinical Antimalarial Combination Study of M5717, a Plasmodium falciparum Elongation Factor 2 Inhibitor, and Pyronaridine, a Hemozoin Formation Inhibitor” (Antimicrobial Agents and Chemotherapy, 2020)
Like-named read-outs stand apart in the source and are kept apart here.

Tests used:
[1] = system: P. falciparum NF54 strain; assay: [3H]hypoxanthine incorporation assay, individual drugs; format: cell-based; settings: Plasmodium falciparum, 72 h
Protocol: IC50 and drug interaction studies were performed as previously described ([27], [28]). […] Cultures were harvested onto glass fiber filters, washed, and the radioactivity was counted using a MicroBetaplate liquid scintillation counter and recorded as counts per minute (cpm) per well. Results are expressed as a percentage of the untreated controls (see the supplemental material for more details). page 2: 25 In vitro isobolograms 26 Compounds were tested against intraerythrocytic forms of P. falciparum derived from asynchronous stock cultures 27 of lab strain NF54 (Schiphol airport strain of unknown origin), as previously described.i,ii The culture medium was […] 29 mM HEPES, 25 mM NaHCO3 (pH 7.3), 0.36 mM hypoxanthine and 100 μg/mL neomycin. Human type A+ 30 erythrocytes served as host cells. […] 31 in humidified modular chambers. Testing of the individual drugs was carried out in 96-well microtiter plates. The 32 compounds were dissolved in DMSO (10 mg/mL), prediluted in hypoxanthine-free culture medium and titrated in […] After addition of an equal volume of parasite culture with a parasitemia of […] Parasite growth was measured by the incorporation of radiolabelled [3H]hypoxanthine (0.25 µCi in […] 37 assay duration) prior to the termination of the test. Cultures were harvested onto glass-fiber filters and washed with 38 distilled water. The radioactivity was counted using a MicroBetaplate liquid scintillation counter (Wallac, Zürich, 39 Switzerland) and the results recorded as counts per minute (cpm) per well at each drug concentration and expressed 40 as percentage of the untreated controls. Fifty percent inhibitory concentrations (IC50) were determined by linear 41 interpolation.v 42 43 For data interpretation, the IC50s of the drugs in combination were expressed as fractions of the IC50s of the drugs 44 alone. These fractions were called “Fractional Inhibitory Concentrations” (FIC) for drug A and for drug B, 45 respectively. 46 FIC Drug A = IC50 A (B) IC50 A […] 49 50 Formulation 51 Pyronaridine (tetraphosphate salt) and […] (succinate salt) were solubilized in a vehicle consisting of 70% […] 54 55 2

[2] = 400 mg in healthy volunteers ref 16; cited from earlier work
[3] = system: P. falciparum eEF2 mutant parasites; design: method as in PMID 26085270; settings: cited from earlier work

Row | Structure (SMILES) | EC50 [1] [nM] | t1/2 [2] [days] | IC50 fold shift ([3]; eEF2 mutation L755F ref 7) [fold] | IC50 fold shift ([3]; eEF2 mutation P754A ref 7) [fold] | IC50 fold shift ([3]; eEF2 mutation P754S ref 7) [fold] | fold shift of IC50 ([3]; eEF2 mutation Y186N, high-grade resistance ref 7)
1 | COc1ccc2nc3cc(Cl)ccc3c(Nc3cc(CN4CCCC4)c(O)c(CN4CCCC4)c3)c2n1 [pyronaridine] | 3.5 | 10 | – | – | – | –
2 | O=C(NCCN1CCCC1)c1cc(-c2ccc(CN3CCOCC3)cc2)nc2ccc(F)cc12 [M5717] | 0.3 | – | 660 | 135 | 200 | > 3,000 fold
